Series [1] relates to HIV-1 (latent, in resting CD4+ T cells from infected individuals). The following applies: earlier study of the inventors (32); cited from earlier work.
The test system of series [2] is HIV-1. The following applies: patients on ART; cited from earlier work.
In series [3] the test system is HIV-1 (latent, in resting CD4+ T cells from infected individuals). The following applies: earlier study (32); cited from earlier work.
The test system is the same in series [4]. Type of series: cell-based. As to conditions: for ρ, median fold change in supernatant HIV-1 mRNA versus DMSO control observed in the ex vivo assay: lower bound, as no virion production was detectable for DMSO; for virus release into supernatant (in words): 24 hours of treatment. Here is the method: Production and release of HIV-1 virions by LRA-treated rCD4s indicates complete reversal of latency in those cells. To assess whether combinations of LRAs induced rapid virus release, HIV-1 mRNA were measured in the culture supernatants of LRA-treated rCD4s from infected individuals on suppressive ART using an RT-qPCR assay previously shown to provide sensitive and accurate quantitation of HIV-1 virion production (45). […] The Bliss independence model was applied to quantitate interactions between LRAs.
(§1) The final DMSO percentage was 0.2% (v/v) for all single and combination treatments. Concentrations were chosen based on previous ex vivo studies with rCD4s from infected individuals as well as studies using in vitro latency models (13, 28, 29, 32-34) with the aim of selecting clinically relevant concentrations.
HIV-1 mRNA was extracted from 0.25 mL of supernatant from the LRA-treated cell cultures described above with 0.75 mL of TRIzol® LS Reagent (Invitrogen) according to the manufacturer's protocol. cDNA synthesis and real-time quantitative PCR was performed as described (32). […] The limit of detection for each qPCR was 10 copies per reaction, which scaled to a limit of detection of 150 copies per mL of culture supernatant. Primers and probes are listed below. Molecular standard curve was generated as described above.
(§2) The Bliss independence model, one method to predict the expected combined effects of multiple drugs assuming the drugs act through independent mechanisms, as a metric by which to evaluate the latency reversing activity of drug combinations was used. The Bliss independence model is defined by the equation:
(§3) If Dfaxy=0, then the drug combination follows the Bliss model for independent action. […] In this analysis, the fraction affected was calculated as follows for intracellular HIV-1 mRNA and for supernatant HIV-1 virion quantitation:
(§4) fax=(copies drug X−copies DMSO control)/(copies PMA/I−copies DMSO control)

The conditions of series [5]: cancer patients; cited from earlier work.
The conditions of series [6]: continuous infusion for 14 or 21 days; cited from earlier work.
Series [7] deals with HIV-1 (latent, in resting CD4+ T cells from infected individuals).
Source text: as §1, §2, §3, §4

The values that follow come from patent US20180169108A1, “Drug Combinations For the Treatment of HIV” (The Johns Hopkins University, priority 2015, published 2018).

For `Cc1sc2c(c1C)C(c1ccc(Cl)cc1)=N[C@@H](CC(=O)OC(C)(C)C)c1nnc(C)n1-2` [JQ1], the “latency reversal in rCD4s from infected individuals (in words)” value in series [1] is on record as “only minimally active”.
`O=C(CCCCCCC(=O)Nc1ccccc1)NO` [vorinostat]: the “latency reversal in rCD4s from infected individuals (in words)” value in series [1] is on record as “only minimally active”. Moreover, the “increase in plasma HIV-1 RNA using quantitative clinical assays (in words)” value in series [2] is reported as “no increases in plasma HIV-1 RNA”. In series [3], the “viral production ex vivo (in words)” value is recorded as “fail to stimulate detectable viral production”.
`C/C=C1\NC(=O)[C@H]2CSSCC/C=C/[C@H](CC(=O)N[C@H](C(C)C)C(=O)N2)OC(=O)[C@H](C(C)C)NC1=O` [romidepsin]: the “ρ, median fold change in supernatant HIV-1 mRNA versus DMSO control observed in the ex vivo assay” value (shortened to “ρ, median fold change”) in series [4] is 15.
Take `CC(=O)O[C@@]12C[C@@H](C)[C@@]3(O)[C@@H](C=C(CO)C[C@]4(O)C(=O)C(C)=C[C@@H]34)[C@@H]1C2(C)C` [prostratin]: in series [4], the “virus release into supernatant (in words)” value was “significant virus release” and the “ρ, median fold change” value was determined as 209.
With `CCC/C=C/C=C/C(=O)O[C@H]1/C(=C/C(=O)OC)C[C@H]2C[C@H]([C@@H](C)O)OC(=O)C[C@H](O)C[C@@H]3C[C@H](OC(C)=O)C(C)(C)[C@](O)(C[C@@H]4C/C(=C/C(=O)OC)C[C@H](/C=C/C(C)(C)[C@]1(O)O2)O4)O3` [bryostatin-1], in series [4], the “virus release into supernatant (in words)” value was “significant virus release” and the “ρ, median fold change” value is 120. Moreover, in series [5], the “clinical tolerability (in words)” value is “dose limiting toxicities grade 3/4 myalgia, arthralgia, and weakness”. In addition, the “intracellular HIV-1 mRNA induction relative to the maximum reactivation elicited by T cell activation” value in series [1] is given as “four”. Besides, the “approximated maximally tolerated dose” value in series [6] was roughly 16 μg/m2/day. Moreover, the “induction of intracellular HIV-1 mRNA (significance, in words)” value in series [7] (1 nM bryostatin-1) is “did not induce significant intracellular HIV-1 mRNA”. The “mean increase in intracellular HIV-1 mRNA, fold induction relative to DMSO control” value in series [7] (rCD4s from infected individuals on ART, 24 h, 10 nM bryostatin-1, 300 nM prostratin, 40 nM romidepsin, 50 ng/mL PMA + 1 μM ionomycin) worked out at 12.8 fold.
